Test system: angiogenesis genes in dermal microvascular endothelial cells
Assay: Real time RT-PCR of angiogenesis gene expression during endothelial tube formation
Format: cell-based
Settings: 1 μM SM, 24 hours
Method: For gene expression studies, three independent experiments were run for each SM tested. 90.000 cells/well (6 wells/treatment) of dermal microvascular endothelial cells (Lonza, Walkersville, Md.) were seeded on polymerized GELTREX™ gel matrix (Invitrogen, Carlsbad, Calif.) in 24 well plates. Wells were immediately treated with the same volume of 1 μM SM or PBS. After 24 hours incubation at 37° C. and 5% CO2, cells were extracted using Cell Recovery Solution (BD Biosciences, San Jose, Calif., Cat. #354253). Total RNA was extracted with the RNeasy Mini Kit (Qiagen, Valencia, Calif., Cat. #74104), and retrotranscribed using […]® First-Strand reverse transcriptase (Invitrogen, Carlsbad, Calif., Cat. #11904-018). The real time PCR reactions were performed in an Opticon 2 cycler (MJ Research, Waltham, Mass.). Amplification was performed in a final volume of 25 μl, containing 2 μl cDNA (1:10 dilution from the reversed transcribed reaction) and 2 μl of primer mixture (10 μM each of forward and reverse primers). Samples were amplified as follows: after initial denaturation at 95 C for 2 minutes, reactions were run for 46 cycles at 95° C. for 30 seconds, 60° C. for 30 seconds, and 72° C. for 45 seconds. Fluorescence was measured in every cycle and a melting curve was run after the PCR by increasing temperature from 50 to 96° C. (in 0.5° C. increments). A defined single peak was obtained for all amplicons, thus confirming the specificity of the amplification.
The genes that were monitored were selected based on their relevance to the angiogenesis process. All experiments were done in triplicate. The results are shown in the volcano plots of FIG. 17. Log 2 fold-change is presented in the X-axis and log 10 P value in the Y-axis.

COc1ccc(CC2C(=O)NC(C)C(=O)N(C)C3Cc4ccc(cc4)Oc4cc(ccc4O)CC(C(=O)NC(C)C(=O)NC(C)C(=O)N2C)N(C)C3=O)cc1 (centres unmarked) [compound 259969]
Log2 fold-change of gene expression: 1839: −4.2 | Log2 fold-change of gene expression: 4247: 0.2 | Log2 fold-change of gene expression: 5569: 4.6 | Log2 fold-change of gene expression: 8131: −0.2 | Log2 fold-change of gene expression: 9569: −1.7 | Log2 fold-change of gene expression: 10988: 0.3 | Log2 fold-change of gene expression: 23001: 0.3 | Log2 fold-change of gene expression: 55332: 0.1 | Log2 fold-change of gene expression: 57722: −0.1 | Log2 fold-change of gene expression: 58488: 0.4 | Log2 fold-change of gene expression: 90780: −2.4 | Log2 fold-change of gene expression: 134265: −0.6 | Log2 fold-change of gene expression: AKT1: −1.4 | Log2 fold-change of gene expression: ANGPT1: 1.4 | Log2 fold-change of gene expression: ANGPT2: 0.9 | Log2 fold-change of gene expression: ANGPTL3: 3.6 | Log2 fold-change of gene expression: ANGPTL4: 1.5 | Log2 fold-change of gene expression: ANPEP: 0.2 | Log2 fold-change of gene expression: ANTXR1: −1.4 | Log2 fold-change of gene expression: APOE: 0.8 | Log2 fold-change of gene expression: ARHGEF1: −0.8 | Log2 fold-change of gene expression: Acvrl1: −1.9 | Log2 fold-change of gene expression: Adcy4: −0.6 | Log2 fold-change of gene expression: BAL1: 0.4 | Log2 fold-change of gene expression: BMP1: −0.6 | Log2 fold-change of gene expression: C1orf54: −6.1 | Log2 fold-change of gene expression: CALD1: −0.6 | Log2 fold-change of gene expression: CCL2: 3.6 | Log2 fold-change of gene expression: CCL11: 0.0 | Log2 fold-change of gene expression: CD248: 0.6 | Log2 fold-change of gene expression: CDH5: −1.6 | Log2 fold-change of gene expression: CENTD3: −1.0 | Log2 fold-change of gene expression: CLIC1: 1.8 | Log2 fold-change of gene expression: COL4A3: 3.2 | Log2 fold-change of gene expression: COL18A1: 1.9 | Log2 fold-change of gene expression: COMT: −1.7 | Log2 fold-change of gene expression: CST4: 0.4 | Log2 fold-change of gene expression: CTTNBP2NL: −1.0 | Log2 fold-change of gene expression: CXCL3: 11.6 | Log2 fold-change of gene expression: CXCL5: 10.2 | Log2 fold-change of gene expression: CXCL6: 1.0 | Log2 fold-change of gene expression: CXCL9: 0.5 | Log2 fold-change of gene expression: CXCL10: 2.8 | Log2 fold-change of gene expression: Calcr1: −2.9 | Log2 fold-change of gene expression: Caskin2: −2.3 | Log2 fold-change of gene expression: Ccbp2: 5.6 | Log2 fold-change of gene expression: Cldn5: 0.4 | Log2 fold-change of gene expression: DGKG: 6.1 | Log2 fold-change of gene expression: DKK3: −2.7 | Log2 fold-change of gene expression: DLL4: −4.1 | Log2 fold-change of gene expression: DUT: −1.9 | Log2 fold-change of gene expression: EFNA1: 7.8 | Log2 fold-change of gene expression: EFNA3: 0.3 | Log2 fold-change of gene expression: EFNB2: −6.6 | Log2 fold-change of gene expression: EGF: 0.2 | Log2 fold-change of gene expression: ENG: −0.7 | Log2 fold-change of gene expression: EPHB4: 0.3 | Log2 fold-change of gene expression: EREG: 9.3 | Log2 fold-change of gene expression: ESAM1: −1.6 | Log2 fold-change of gene expression: EXTL3: 0.4 | Log2 fold-change of gene expression: Egf17: −2.3 | Log2 fold-change of gene expression: Ehd4: −0.7 | Log2 fold-change of gene expression: Entpd1: −5.6 | Log2 fold-change of gene expression: Epas1: 1.5 | Log2 fold-change of gene expression: EphB1: 0.6 | Log2 fold-change of gene expression: Erg: −3.9 | Log2 fold-change of gene expression: FGF1: 5.7 | Log2 fold-change of gene expression: FGF2: 2.5 | Log2 fold-change of gene expression: FGFR3: 1.2 | Log2 fold-change of gene expression: FIGF: 0.2 | Log2 fold-change of gene expression: FLT1: −0.7 | Log2 fold-change of gene expression: Fgd5: −0.8 | Log2 fold-change of gene expression: GPCR124: −4.6 | Log2 fold-change of gene expression: GRRP1: 0.6 | Log2 fold-change of gene expression: Grp116: −5.5 | Log2 fold-change of gene expression: HAND2: 1.4 | Log2 fold-change of gene expression: HGF: 1.5 | Log2 fold-change of gene expression: HIF1A: 0.7 | Log2 fold-change of gene expression: HPSE: 2.6 | Log2 fold-change of gene expression: Hspa12b: −10.2 | Log2 fold-change of gene expression: ID1: 1.5 | Log2 fold-change of gene expression: ID3: 2.5 | Log2 fold-change of gene expression: IFNA1: 1.1 | Log2 fold-change of gene expression: IFNB1: 1.6 | Log2 fold-change of gene expression: IFNG: 6.0 | Log2 fold-change of gene expression: IGF1: −2.6 | Log2 fold-change of gene expression: IL1B: 1.3 | Log2 fold-change of gene expression: IL6: 9.4 | Log2 fold-change of gene expression: IL8: 11.3 | Log2 fold-change of gene expression: ITGAV: −0.9 | Log2 fold-change of gene expression: ITGB3: −2.9 | Log2 fold-change of gene expression: Icam1: 2.8 | Log2 fold-change of gene expression: Icam2: 7.5 | Log2 fold-change of gene expression: JAG1: 1.7 | Log2 fold-change of gene expression: KDR: −0.5 | Log2 fold-change of gene expression: Kifc1: −4.8 | Log2 fold-change of gene expression: LAMAS5: −0.8 | Log2 fold-change of gene expression: LECT1: −8.0 | Log2 fold-change of gene expression: LEP: 0.8 | Log2 fold-change of gene expression: Lasts2: 1.5 | Log2 fold-change of gene expression: Lrrk1: 0.3 | Log2 fold-change of gene expression: MDK: −1.0 | Log2 fold-change of gene expression: MMP2: −0.1 | Log2 fold-change of gene expression: MMP9: 4.3 | Log2 fold-change of gene expression: MMP11: 0.1 | Log2 fold-change of gene expression: MRC2: −0.6 | Log2 fold-change of gene expression: Mmm2: −7.5 | Log2 fold-change of gene expression: Myo1b: −3.0 | Log2 fold-change of gene expression: NID1: −3.6 | Log2 fold-change of gene expression: NM023516: 0.9 | Log2 fold-change of gene expression: NRP1: −2.6 | Log2 fold-change of gene expression: NRP2: −3.5 | Log2 fold-change of gene expression: Notch4: −0.3 | Log2 fold-change of gene expression: Npr3: 2.7 | Log2 fold-change of gene expression: PALD: −1.3 | Log2 fold-change of gene expression: PDCD2: −1.7 | Log2 fold-change of gene expression: PDGFA: 1.1 | Log2 fold-change of gene expression: PECAM1: −3.0 | Log2 fold-change of gene expression: PGF: −7.2 | Log2 fold-change of gene expression: PLAU: 3.8 | Log2 fold-change of gene expression: PLG: −1.0 | Log2 fold-change of gene expression: PNMT: −0.1 | Log2 fold-change of gene expression: PROK2: 2.2 | Log2 fold-change of gene expression: PTGS1: 2.9 | Log2 fold-change of gene expression: PTPRCAP: 0.9 | Log2 fold-change of gene expression: Pltp: 1.4 | Log2 fold-change of gene expression: Ptprb: −0.1 | Log2 fold-change of gene expression: Ptprm: 1.7 | Log2 fold-change of gene expression: RAMP2: −5.9 | Log2 fold-change of gene expression: RASD2: 0.5 | Log2 fold-change of gene expression: Rasip1: −1.1 | Log2 fold-change of gene expression: S1PR1: −0.3 | Log2 fold-change of gene expression: SERPINF1: 6.5 | Log2 fold-change of gene expression: SPHK1: 3.2 | Log2 fold-change of gene expression: STAB1: 0.5 | Log2 fold-change of gene expression: Sdc4: 4.0 | Log2 fold-change of gene expression: Sdpr: 0.9 | Log2 fold-change of gene expression: Slc43a3: 0.2 | Log2 fold-change of gene expression: Slco2a1: −2.4 | Log2 fold-change of gene expression: TEK: 1.6 | Log2 fold-change of gene expression: TGFA: 8.7 | Log2 fold-change of gene expression: TGFB1: 0.3 | Log2 fold-change of gene expression: TGFB2: 1.3 | Log2 fold-change of gene expression: TGFBR1: 1.1 | Log2 fold-change of gene expression: THBS1: −0.1 | Log2 fold-change of gene expression: THBS2: 2.6 | Log2 fold-change of gene expression: THY1: −3.0 | Log2 fold-change of gene expression: TIMP1: 2.5 | Log2 fold-change of gene expression: TIMP2: 0.0 | Log2 fold-change of gene expression: TIMP3: −0.6 | Log2 fold-change of gene expression: TNF: 9.3 | Log2 fold-change of gene expression: TNS1: −0.3 | Log2 fold-change of gene expression: TNS3: −8.0 | Log2 fold-change of gene expression: TRA2B: 0.6 | Log2 fold-change of gene expression: TYMP: 0.1 | Log2 fold-change of gene expression: VEGFA: 5.7 | Log2 fold-change of gene expression: VEGFC: 1.9 | Log2 fold-change of gene expression: VGLL4: 1.3 | Log2 fold-change of gene expression: Vwf: −5.4 | Log2 fold-change of gene expression: copa: −2.1 | Log2 fold-change of gene expression: itbp4: −1.7 | Log2 fold-change of gene expression: ralb: 0.7 | Log2 fold-change of gene expression: stard9: 0.0 | Log2 fold-change of gene expression: B2M (1st listing (r49)): 1.2 | Log2 fold-change of gene expression: HPRT1 (1st listing (r50)): 0.6 | Log2 fold-change of gene expression: RPL13A (1st listing (r51)): 1.2 | Log2 fold-change of gene expression: GADPH (1st listing (r52)): −1.0 | Log2 fold-change of gene expression: ACTB (1st listing (r53)): −2.5 | Log2 fold-change of gene expression: PLXDC1 (1st listing (r74)): 2.3 | Log2 fold-change of gene expression: TNFAIP2 (1st listing (r91)): 4.6 | Log2 fold-change of gene expression: Robo4 (1st listing (r95)): −4.1 | Log2 fold-change of gene expression: 151516 (1st listing (r134)): 0.5 | Log2 fold-change of gene expression: TNFAIP2 (2nd listing (r92)): 4.7 | Log2 fold-change of gene expression: B2M (2nd listing (r97)): 1.5 | Log2 fold-change of gene expression: HPRT1 (2nd listing (r98)): −0.5 | Log2 fold-change of gene expression: RPL13A (2nd listing (r99)): 0.7 | Log2 fold-change of gene expression: GADPH (2nd listing (r100)): 0.0 | Log2 fold-change of gene expression: ACTB (2nd listing (r101)): −2.2 | Log2 fold-change of gene expression: PLXDC1 (2nd listing (r104)): −2.4 | Log2 fold-change of gene expression: 151516 (2nd listing (r139)): 0.5 | Log2 fold-change of gene expression: Robo4 (2nd listing (r188)): 0.3 | Log2 fold-change of gene expression: B2M (3rd listing (r145)): 0.5 | Log2 fold-change of gene expression: HPRT1 (3rd listing (r146)): 0.8 | Log2 fold-change of gene expression: RPL13A (3rd listing (r147)): 0.0 | Log2 fold-change of gene expression: GADPH (3rd listing (r148)): −1.7 | Log2 fold-change of gene expression: ACTB (3rd listing (r149)): −2.2 | Log2 fold-change of gene expression: B2M (4th listing (r193)): 0.8 | Log2 fold-change of gene expression: HPRT1 (4th listing (r194)): 0.5 | Log2 fold-change of gene expression: RPL13A (4th listing (r195)): 0.0 | Log2 fold-change of gene expression: GADPH (4th listing (r196)): −2.1 | Log2 fold-change of gene expression: ACTB (4th listing (r197)): 0.4

Source: patent publication US9504729B2, “Antiangiogenic small molecules and methods of use” (The United States of America, as represented by the …, priority 2009, dated 2016)
